Laboratory results: patent US5187157A, “Peptide boronic acid inhibitors of trypsin-like proteases” (Du Pont Merck Pharmaceutical Company, priority 1988, dated 1993)
pKi: −log10 of the molar value.

Assays:
[1] = Stability of Inhibitors in Human Plasma As Measured By APTT; type: in vitro ADME; details: for Clotting Time: 250 nM in APTT assay
Description: The stability of inhibitors in plasma was determined by their ability to inhibit blood coagulation. First, a stock solutions (1.0 μM) of the inhibitors to be tested in 25 mM HEPES buffer, pH 7.5, containing 0.10 M sodium chloride were diluted 50% with normal human plasma. The mixtures were made at 0°, then aliquots (0.200 mL) were removed and incubated for 2 min at 37°. An equal volume of automated APTT reagent was added and clotting times were measured as described in Examples 111-117. The final concentration of inhibitor during the clotting assays was 250 nM. Values for compounds E and F were determined simultaneously with the Control. Values for compounds A, B and C were obtained on a different day.

Human thrombin = target: T1, Human thrombin (Homo sapiens, UniProt P00734); experiment: Inhibition of Thrombin (Esterase Activity); type: biochemical; details: inhibitor 5 nM; activity remaining 10 to 20 min after initiation
T1 construct: purchased R.Q.P. Laboratories, South Bend, IN Lot HT102
Description: (§1) In the Examples which follow, the hydrolytic activity of each enzyme is measured in both the presence and absence of inhibitor and the percent enzyme activity determined. […] A steady state is reached fairly rapidly and nears completion within 5 min. Activity is evaluated between 10-20 min after the components are mixed to insure that reaction components are at equilibrium. The lowest concentration of inhibitor tested is determined by the estimated concentration of enzyme. […] The maintenance of pseudo-first-order reaction conditions and the sensitivity of the respective assays sets the lowest limit level of inhibitor tested at 10 nM for kallikrein inhibitors and 5 nM for thrombin inhibitors.
A stock solution of thrombin was prepared in 0.010M PIPES Buffer, pH 6.0, containing 0.75 M sodium chloride. […] The initial concentration of substrate was 0.10 mM and the concentration of thrombin was 1.0 nM (based on weight).

normal human plasma [2] = experiment: Activated partial thromboplastin times (APTT), blood coagulation in vitro; type: biochemical; details: for Calc. Concentration 2 × APTT: approximate concentration required to increase APTT two fold
Description: (§2) The effectiveness of inhibitors in reactions in which they compete with natural substrates for target enzymes is measured in vitro in blood coagulation assays. Two different assays are used, the APTT (activated partial thromboplastin times) and PT (prothrombin times) assays. These assays mimic the blood clotting process in vivo. Blood coagulation occurs through either of two pathways, each consisting of a cascades of zymogen activation steps. The pathways are termed the intrinsic and the extrinsic pathways (see L. Lorand, Methods in Enzymology 45: 31-37 (1976). The intrinsic pathway is initiated by negatively charged surfaces in which plasma kallikrein, factor XII and factor […] are activated and then factors IX and X and prothrombin are activated in calcium dependent steps. Thrombin, the last protease in the cascade, hydrolyses fibrinogen to fibrin which results in clot formation. In the APTT assay, plasma components are activated by exposure to negatively charged surfaces and then clotting times are measured after calcium is added to the system. In the extrinsic pathway, tissue thromboplastin activates factor VII which then activates factor X leading to the activation of thrombin. These events are measured in the prothrombin times assay.
The effect of protease inhibitors on blood coagulation in vitro was determined by measuring their effects on two different clinical parameters, the activated partial thromboplastin times (APTT) and prothrombin times (PT). Reagents for each of these assays were supplied by General Diagnostics, Jessup MD. Stock solutions of inhibitors were prepared in […] HEPES buffer, pH 7.5, containing 0.10 M sodium chloride. For the APTT assay, the inhibitor solution (0.100 mL) was incubated with normal human plasma (0.100 mL) and automated APTT reagent (0.100 mL). After incubation for 5.0 min at 37°, calcium chloride (0.100 mL) was added and the clotting times, measured in seconds, was determined on a fibrameter. The effects of the varying concentrations of inhibitor on blood clotting times compared with the clotting times of controls run in the absence of inhibitor, are shown in Table 3.

[3] = Stability of Inhibitors in Buffer (thrombin assay); details: for stability in phosphate buffer at pH 7.5 (inhibitory activity): phosphate buffer pH 7.5; for Percent Thrombin activity: 1.0 μM
Description: Samples of the inhibitors are removed at increasing time intervals and their ability to delay clotting is measured at each interval.
Inhibitors, each at a concentration of 1.0 μM, were incubated at room temperature in 0.20 M sodium phosphate buffer, pH 7.5, containing 0.20 M sodium chloride and 0.10% PEG.

Sprague Dawley CD Rats = experiment: In Vivo Inhibition of Croton Oil Induced Inflammation (ear swelling); details: Table 14; dose=100 μg, essentially the same conditions
Description: Two solutions were prepared, the first consisting of 5% croton oil, a known inflammatory agent, in an acetone carrier (Croton Solution) and the second consisting of 5% croton oil in an acetone carrier to which 10 mg/mL of a compound of the invention was added (Compound Solution). The Croton Solution (10 μL), or alternatively the Compound Solution (10 μL), was applied to the right ear of each animal (Sprague Dawley CD Rats, 130-140 g, supplied by Charles River Labs, Inc., Wilmington, MA). […] "SE" denotes standard error.

normal human plasma [4] = experiment: Prothrombin times (PT), blood coagulation in vitro; type: biochemical; details: for Calc. Concentration 2 × XPT: approximate concentration required to increase PT two fold
Description: as §2
For PT assays, inhibitor solutions (0.100 mL) were incubated with normal human plasma (0.100 mL) for 2 min at 37°.

rabbit = rabbit model; Shaw et al.; cited from earlier work
thrombin = details: literature; cited from earlier work
Human plasma kallikrein = target: T2, Human plasma kallikrein (Homo sapiens, UniProt P03952); experiment: Inhibition of Human Plasma Kallikrein; type: biochemical; details: inhibitor 10 nM; activity remaining 10 to 20 min after initiation
T2 construct: purchased Protogen AG (Switzerland)
T2 sequence (P03952 391-638 limits assumed): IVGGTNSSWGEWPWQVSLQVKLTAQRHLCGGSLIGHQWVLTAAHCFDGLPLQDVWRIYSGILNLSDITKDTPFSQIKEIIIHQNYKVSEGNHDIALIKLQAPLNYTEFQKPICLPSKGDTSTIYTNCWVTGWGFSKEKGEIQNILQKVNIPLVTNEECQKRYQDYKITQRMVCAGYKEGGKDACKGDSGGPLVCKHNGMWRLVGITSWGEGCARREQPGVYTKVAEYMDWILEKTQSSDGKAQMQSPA
T2 sequence (P03952 20-390 partner limits assumed): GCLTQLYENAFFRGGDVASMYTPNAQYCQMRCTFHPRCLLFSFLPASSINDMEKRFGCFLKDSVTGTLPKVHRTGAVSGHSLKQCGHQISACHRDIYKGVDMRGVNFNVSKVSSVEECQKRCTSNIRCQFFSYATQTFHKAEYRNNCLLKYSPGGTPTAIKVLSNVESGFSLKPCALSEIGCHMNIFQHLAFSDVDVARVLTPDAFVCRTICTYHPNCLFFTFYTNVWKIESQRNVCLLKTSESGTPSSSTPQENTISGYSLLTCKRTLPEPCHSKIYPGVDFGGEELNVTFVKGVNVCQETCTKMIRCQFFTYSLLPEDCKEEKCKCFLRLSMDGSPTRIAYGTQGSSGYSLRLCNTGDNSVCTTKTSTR
Description: as §1
Human plasma kallikrein was obtained from Protogen AG (Switzerland). The specific activity as described by the supplier is 15 units per mg. A unit is defined as the quantity of enzyme required to hydrolyze 1 μmole of substrate, H-(D)Pro-Phe-Arg-p-nitroanilide (Kabi S2302), per min at a substrate concentration of 0.50 mM at 25° in 50 mM potassium phosphate buffer, pH 8.0.

plasma [5] = experiment: Heparin effect on plasma clotting times; type: biochemical; details: assuming molecular weight 15,000 and 150 units/mg
plasma [6] = details: 0.2-0.4 units of heparin per mL of plasma; cited from earlier work
plasma [7] = details: at 1 μM; Green et al.; cited from earlier work
rats = details: Tremoli et al.; cited from earlier work
[8] = incubation in human plasma 0.5 h
[9] = incubation in human plasma 24 h
[10] = 0 hr in 0.20 M sodium phosphate buffer pH 7.5, room temperature

| Molecule | Clotting Time ([1]; incubation in human plasma 0 h) | Clotting Time [1, 8] | Clotting Time ([1]; incubation in human plasma 1 h) | Clotting Time ([1]; incubation in human plasma 2 h) | Clotting Time ([1]; incubation in human plasma 4 h) | Clotting Time [1, 9] | Percent Activity (Human thrombin) | Calc. Concentration 2 × APTT (normal human plasma [2]) | Activated Partial Thromboplastin Times (normal human plasma [2]; inhibitor 125 nM) | Activated Partial Thromboplastin Times (normal human plasma [2]; inhibitor 200 nM) | Activated Partial Thromboplastin Times (normal human plasma [2]; inhibitor 250 nM) | Activated Partial Thromboplastin Times (normal human plasma [2]; inhibitor 300 nM) | Activated Partial Thromboplastin Times (normal human plasma [2]; inhibitor 350 nM) | stability in phosphate buffer at pH 7.5 (inhibitory activity) [3] | Calc. Concentration 2 × XPT (normal human plasma [4]) | Prothrombin Times (normal human plasma [4]; inhibitor 12.5 nM) | Prothrombin Times (normal human plasma [4]; inhibitor 250 nM) | Prothrombin Times (normal human plasma [4]; inhibitor 500 nM) | Prothrombin Times (normal human plasma [4]; inhibitor 750 nM) | Prothrombin Times (normal human plasma [4]; inhibitor 1000 nM) | also measured |
| --- | --- | --- | --- | --- | --- | --- | --- | --- | --- | --- | --- | --- | --- | --- | --- | --- | --- | --- | --- | --- | --- |
| Br.CC(C)(C)OC(=O)NC(Cc1ccccc1)C(=O)N1CCCC1C(=O)NC(CCCSC(=N)N)B1OC2CC3CC(C3(C)C)C2(C)O1 (stereo not drawn) [C, Boc-(D)Phe-Pro-boroIrg-C10 H16.HBr] | 203.2 s | 207.2 s | 214.2 s | 203.7 s | 209.7 s | 248.7 s | 3% | 200 nM | 46.9 s | 67 s | 160 s | 197.8 s | 301.8 s | little loss of inhibitor activity | 650 nM | 16.8 s | 20.8 s | 27.2 s | 44 s | 152.7 s | Activated Partial Thromboplastin Times (normal human plasma [2]; inhibitor 62.5 nM): 39.2 s; Percent Inhibition (Sprague Dawley CD Rats): 76% |
| N=C(N)NCCC[C@H](NC(=O)[C@@H]1CCCN1C(=O)[C@H](N)Cc1ccccc1)C(=O)CCl [H-(D)Phe-Pro-ArgCH2 Cl] |  |  |  |  |  |  |  |  |  |  |  |  |  |  |  |  |  |  |  |  | prevention of coronary thrombosis (rabbit): effective in the prevention of coronary thrombosis |
| N=C(N)NCCC[C@@H](C=O)NC(=O)[C@@H]1CCCN1C(=O)[C@H](N)Cc1ccccc1 [H-(D)Phe-Pro-Arg-H] |  |  |  |  |  |  |  |  |  |  |  |  |  |  |  |  |  |  |  |  | pKi (thrombin): 7.12 |
| CC(C)(C)OC(=O)NC(Cc1ccccc1)C(=O)N1CCCC1C(=O)NC(CCCN=C(N)N)B1OC2CC3CC(C3(C)C)C2(C)O1.O=S(=O)(O)c1ccccc1 (stereo not drawn) [A, Boc-(D)Phe-Pro-boroArg-C10 H16.benzene sulfonic acid] | 81.2 s | 84.7 s | 79.7 s | 86.7 s | 98.2 s | 92.2 s | 3% | 230 nM | 36.6 s | 40.2 s | 81.2 s | 113.3 s | 128.7 s | little loss of inhibitor activity | 800 nM | 16.4 s | 17.1 s | 21.5 s | 26.7 s | > 200 s | Percent Thrombin activity [3, 10]: 3.3%; Percent Thrombin activity ([3]; 6.5 hr in 0.20 M sodium phosphate buffer pH 7.5, room temperature): 1.6%; Percent Thrombin activity ([3]; 24 hr in 0.20 M sodium phosphate buffer pH 7.5, room temperature): 0.8%; Percent Inhibition (Sprague Dawley CD Rats): 59%; Prothrombin Times (normal human plasma [4]; inhibitor 875 nM): 40.1 s |
| CC1(C)C2CC3OB(C(CCCN=C(N)N)NC(=O)C4CCCN4C(=O)C(N)Cc4ccccc4)OC3(C)C1C2.Cl.Cl (stereo not drawn) [B, H-(D)Phe-Pro-boroArg-C10 H16.2HCl] | 152.2 s | 157.7 s | 163.7 s | 152.8 s | 157.7 s | 109.3 s | 7% | 170 nM | 44.2 s | 71.5 s | 158.7 s | 169.7 s | 249.7 s | loses its biological activity over a period of an hour | 460 nM | 20.1 s | 22.5 s | 33.8 s | 85.3 s | > 250 s | stability in human plasma (inhibitor activity by clotting time) ([1]; incubation with plasma): lost activity after 24 h; Activated Partial Thromboplastin Times (normal human plasma [2]; inhibitor 62.5 nM): 36.5 s; Percent Thrombin activity [3, 10]: 2.0%; Percent Thrombin activity ([3]; 0.5 hr in 0.20 M sodium phosphate buffer pH 7.5, room temperature): 15%; Percent Thrombin activity ([3]; 1 hr in 0.20 M sodium phosphate buffer pH 7.5, room temperature): 100%; stability in phosphate buffer at pH 7.5 (inhibitory activity) ([3]; listed as H-(D)Phe-Pro-boroArg-C10 H16): lost inhibitory activity within one hour; Prothrombin Times (normal human plasma [4]; inhibitor 625 nM): 46.5 s; Percent Activity (Human plasma kallikrein): 61% |
| heparin |  |  |  |  |  |  |  |  |  |  |  |  |  |  |  |  |  |  |  |  | molar concentration increasing clotting times 2-2.5 fold (plasma [5]): 86 to 170 nM; increase of clotting times (plasma [6]): 2-2.5 fold |
| CC1CNc2c(cccc2S(=O)(=O)N[C@@H](CCCNC(=N)N)C(=O)N2CC[C@@H](C)C[C@@H]2C(=O)O)C1 (stereo partly drawn) [(2R,4R)-4-methyl-1[N^2 -{(3-methyl-1,2,3,4-tetrahydro-8-quinolinyl)sulfonyl}-L-arginyl]-2-piperid inecarboxylic acid] |  |  |  |  |  |  |  |  |  |  |  |  |  |  |  |  |  |  |  |  | increase of prothrombin times of plasma (plasma [7]): 2 fold |
| CC(C)(C)OC(=O)N[C@H](Cc1ccccc1)C(=O)N1CCC[C@H]1C(=O)N[C@H](C=O)CCCNC(=N)N [Boc-(D)Phe-Pro-Arg-H] |  |  |  |  |  |  |  |  |  |  |  |  |  |  |  |  |  |  |  |  | size of venous thrombosis (rats): reduces the size of venous thrombosis |
